Test results: patent US7560484B2 (priority 2000, dated 2009)

Experiments:
[1] = test system: influenza HA vaccine (influenza virus A/PR/8/34); parameters: species or system BALB/c mice; conditions: mouse, in vivo, po
[2] = test system: rotavirus vaccine; assay type: in vivo, mice; conditions: blood
[3] = test system: influenza HA vaccine; conditions: mouse, in vivo
[4] = test system: Mycoplasma; assay type: in vivo, mice
[5] = test system: pertussis-diphtheria-tetanus combined vaccine; parameters: species or system mice; conditions: mouse, in vivo, po
[6] = test system: measles-rubella vaccine; assay type: in vivo, mice; conditions: blood; vaccine nasal twice at 3-week intervals; adjuvant oral before and after first inoculation

CCCCC[C@H](O)[C@H](O)/C=C/[C@H](O)CCCCCCCC(=O)O [9R,12R,13S-trihydroxy-10E-octadecenoic acid]
titer of anti-influenza virus IgA antibody in nasal irrigation liquids [1]: strongly enhanced | titer of anti-influenza virus IgG1 antibody in nasal irrigation liquids [1]: strongly enhanced

CCCCC[C@H](O)[C@H](O)/C=C/[C@@H](O)CCCCCCCC(=O)O [9S,12R,13S-trihydroxy-10E-octadecenoic acid]
titer of anti-influenza virus IgA antibody in nasal irrigation liquids [1]: strongly enhanced | titer of anti-influenza virus IgG1 antibody in nasal irrigation liquids [1]: strongly enhanced

CCCCC[C@H](O)[C@@H](O)/C=C/[C@@H](O)CCCCCCCC(=O)OC [methyl ester derivative, methyl 9S,12S,13S-trihydroxy-10E-octadecenoate]
ELISA titer of antibody produced, vaccine inoculated orally ([2]; rotavirus vaccine inoculated orally): 0.27 | ELISA titer of antibody produced, nasal vaccine drop ([2]; rotavirus vaccine nasal twice at 3-week intervals, adjuvant oral before and after first inoculation): 0.38

CCCCC[C@H](O)[C@@H](O)/C=C/[C@@H](O)CCCCCCCC(=O)O [9S,12S,13S-trihydroxy-10E-octadecenoic acid]
titer of anti-influenza vaccine IgE antibody in the bronchoalveolar irrigation liquid [3]: significantly decreased | mice with lesions associated with Mycoplasma infection ([4]; mouse, in vivo, po): 3 of 10 | average number of lesions ([4]; vaccine intranasal three times at 2-week intervals, adjuvant oral before and after first inoculation): 178 | level of anti-DT-IgA antibody in the nasal irrigation liquid [5]: 11 ELISA units | level of anti-PT-IgA antibody in the nasal irrigation liquid [5]: 14 ELISA units | level of anti-TT-IgA antibody in the nasal irrigation liquid [5]: 11 ELISA units | level of anti-diphtheria toxoid (DT)-IgG antibody in the blood [5]: 70 ELISA units | level of anti-pertussis toxin (PT)-IgG antibody in the blood [5]: 442 ELISA units | level of anti-tetanus toxoid (TT)-IgG antibody in the blood [5]: 75 ELISA units | ELISA titer of antibody produced for measles [6]: 0.30 | ELISA titer of antibody produced for rubella [6]: 0.29 | titer of anti-influenza virus IgA antibody in nasal irrigation liquids [1]: strongly enhanced | titer of anti-influenza virus IgA antibody in the sera [1]: significantly increased | titer of anti-influenza virus IgG1 antibody in nasal irrigation liquids [1]: strongly enhanced | titer of anti-influenza virus IgG1 antibody in the sera [1]: significantly increased
